# Test results taken from PMC11314561, “Design and Synthesis of Novel Aminoindazole-pyrrolo[2,3-b]pyridine Inhibitors of IKKα That Selectively Perturb Cellular Non-Canonical NF-κB Signalling” (Molecules, 2024).
# pKi: −log10 of the molar value.
# Legend:
# IKKα = target: T1, IKKα (Homo sapiens, UniProt O15111); test: DELFIA kinase assay, IKKα; type: biochemical; conditions: for pKi: DELFIA kinase assay; for Selectivity for IKKα over IKKβ: ratio of Ki IKKβ to Ki IKKα
# T1 sequence (O15111 1-745): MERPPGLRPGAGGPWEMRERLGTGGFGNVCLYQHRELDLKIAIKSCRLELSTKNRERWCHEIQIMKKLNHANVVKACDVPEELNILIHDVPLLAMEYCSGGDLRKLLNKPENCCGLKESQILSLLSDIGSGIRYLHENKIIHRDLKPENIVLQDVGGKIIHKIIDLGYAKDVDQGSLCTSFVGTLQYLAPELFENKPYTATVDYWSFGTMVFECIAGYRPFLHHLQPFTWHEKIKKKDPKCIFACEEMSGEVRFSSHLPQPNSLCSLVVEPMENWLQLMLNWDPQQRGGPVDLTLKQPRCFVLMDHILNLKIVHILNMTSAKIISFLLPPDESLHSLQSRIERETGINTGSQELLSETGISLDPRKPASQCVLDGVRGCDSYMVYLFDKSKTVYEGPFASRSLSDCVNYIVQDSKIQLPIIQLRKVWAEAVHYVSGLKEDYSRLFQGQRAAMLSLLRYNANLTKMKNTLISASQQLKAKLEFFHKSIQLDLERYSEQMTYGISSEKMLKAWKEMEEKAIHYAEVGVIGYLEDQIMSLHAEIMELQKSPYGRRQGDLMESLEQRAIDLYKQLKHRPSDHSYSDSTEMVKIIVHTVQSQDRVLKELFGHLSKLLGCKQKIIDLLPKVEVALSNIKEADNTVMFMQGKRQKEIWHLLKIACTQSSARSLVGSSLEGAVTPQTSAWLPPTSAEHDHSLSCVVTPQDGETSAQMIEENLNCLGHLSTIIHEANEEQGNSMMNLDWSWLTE
# Excerpt: To examine the pyrrolo[2,3-b]pyridines as an alternative scaffold, we adopted the AIPP core because it had similar dimensions to SU909 (1), with HBD/HBA motifs positioned at the scaffold extremities to interact with both the hinge region and the G-loop wall of IKKα, a rationale we had previously proposed as the basis for imparting selectivity. A preliminary set of AIPP derivatives was designed and synthesised to explore its utility as an IKK-targeting scaffold, whilst incorporating additional functionality through which to introduce selectivity for the IKKα isoform (2–4; Figure 3). This was achieved by initially adopting two different approaches: either appending a hydrophobic moiety to the pyrrolo[2,3-b]pyridine motif as a fused form to afford the tricyclic derivatives 2 and 3, or as a phenyl substituent to introduce flexibility with respect to the central pyrrolo[2,3-b]pyridine moiety in 4. When assessed against IKKα and IKKβ using our in-house DELFIA kinase assay […] The pyrrolo[2,3-b]pyridine was bound to the hinge region in the classical HBA/HBD motif with the GK+3 amide backbone, whilst the aminoindazole projected towards the top of the pocket to interact with the G-loop (Figure 4A). […] In both isoforms, the 2-phenyl moiety protruded away from the hinge towards the exposed solvent area.
# (§1) IKKα and IKKβ inhibitory activity were determined using a dissociation-enhanced ligand fluorescent immunoassay (DELFIA) based on the protocol of HTScan™ IKKβ Kinase Assay (Cell Signaling Technology, Danvers, MA, USA) as described in [24].
# IKKβ = target: T2, IKKβ (Homo sapiens, UniProt O14920); test: DELFIA kinase assay, IKKβ; type: biochemical; conditions: read-out: Ki Values IKKβ
# T2 sequence (O14920 1-756): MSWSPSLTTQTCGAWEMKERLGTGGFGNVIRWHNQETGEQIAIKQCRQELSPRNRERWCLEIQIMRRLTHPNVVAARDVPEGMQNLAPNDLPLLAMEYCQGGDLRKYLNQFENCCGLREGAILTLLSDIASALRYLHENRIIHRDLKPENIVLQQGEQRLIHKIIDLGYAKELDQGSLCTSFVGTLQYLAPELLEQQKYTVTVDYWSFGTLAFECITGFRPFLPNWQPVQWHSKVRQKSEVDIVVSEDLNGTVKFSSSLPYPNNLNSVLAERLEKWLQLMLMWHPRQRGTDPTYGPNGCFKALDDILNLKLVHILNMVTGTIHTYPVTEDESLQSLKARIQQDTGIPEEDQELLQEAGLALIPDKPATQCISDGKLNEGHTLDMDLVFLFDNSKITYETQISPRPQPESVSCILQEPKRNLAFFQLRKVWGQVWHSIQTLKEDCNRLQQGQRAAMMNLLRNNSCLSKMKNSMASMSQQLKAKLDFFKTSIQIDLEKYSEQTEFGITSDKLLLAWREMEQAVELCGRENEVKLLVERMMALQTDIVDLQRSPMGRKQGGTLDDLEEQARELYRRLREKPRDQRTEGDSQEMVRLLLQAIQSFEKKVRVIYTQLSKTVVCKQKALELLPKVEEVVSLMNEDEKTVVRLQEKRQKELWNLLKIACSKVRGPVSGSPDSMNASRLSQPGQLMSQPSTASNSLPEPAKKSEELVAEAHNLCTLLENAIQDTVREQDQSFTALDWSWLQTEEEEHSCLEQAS
# Procedure: as §1
pKi (IKKα),pKi (IKKβ),Selectivity for IKKα over IKKβ (IKKα; listed as 6g [SU1349]),Selectivity for IKKα over IKKβ (IKKα; listed as SU1349),SMILES
8.00,6.17,,,Nc1n[nH]c2ccc(-c3ccnc4[nH]c(-c5cccc(OCc6ccccc6)c5)cc34)cc12 [Compound 5r [SU1261]]
7.80,5.47,209 fold,209.5 fold,Nc1n[nH]c2ccc(-c3ccnc4[nH]c(-c5ccnc(OCc6ccccc6)c5)cc34)cc12 [Compound 6g [SU1349]]
8.52,7.82,,,Nc1n[nH]c2ccc(-c3ccnc4[nH]c(-c5ccccc5)cc34)cc12 [Compound 4]
